Test results published in publication PMC10205807, “Cross-species comparison in nonclinical pharmacokinetics of lenvatinib by a simple HPLC with ultraviolet detection” (Scientific Reports, 2023).

Columns and labels:
plasma protein [1] = assay: in vitro plasma protein binding, dogs; type: in vitro ADME
plasma protein [2] = assay: in vitro plasma protein binding, mice; type: in vitro ADME; conditions: mouse
[3] = Stability of lenvatinib in rat plasma and processed samples; type: physicochemical, rats; conditions: for Processed sample stability, mean percentage bias from the theoretical values: processed rat plasma samples, 4 °C, 7 days
Procedure: Calibration samples and QC samples for the reproducibility assessment were prepared by spiking 0.05 mL of the working standard solutions to blank plasma (0.05 mL), and QC samples for the stability assessment were prepared by fortifying 0.05 mL of the solution to 1.5 mL of bank plasma. Lenvatinib concentrations in plasma were 0.005, 0.01, 0.03, 0.1, 0.3, 1, 3, 10, 30, and 100 μg/mL for the calibration samples, and were 0.005, 0.01, 1, and 100 μg/mL for the QC samples for reproducibility assessment. Lenvatinib concentrations of QC samples for the stability assessment were 0.01, 1, and 80 μg/mL.
The developed method for the determination of lenvatinib concentrations in plasma was validated and the following validation parameters including linearity, selectivity, intra- and inter-batch reproducibility, extraction recovery, and stability were evaluated in accordance with the bioanalytical guidelines by United States Food and Drug Administration (US-FDA)[7]. The peak height ratios of lenvatinib to the IS of calibration samples were plotted against the corresponding nominal concentrations of lenvatinib. The calibration curve was prepared by the least square method with 1/(concentration)^2 as the weighting factor. In the linearity assessment, accuracy of each calibration sample was determined to ensure that relative error (RE) at each concentration was within ± 15% (within ± 20% at the LLOQ). […] Intra-batch accuracy and precision were evaluated using QC samples at the four concentrations, LLOQ, low QC (LQC), mid QC (MQC), and ULOQ. […] Inter-batch accuracy and precision were evaluated by testing a single sample at each concentration across five batches (n = 5 in total). […] Extraction recoveries of lenvatinib and the IS from plasma samples of the four species were evaluated. The recoveries of lenvatinib at the low, mid, and high QC levels (triplicates per concentration), and that of the IS (0.5 μg/mL) were determined. […] Stability of lenvatinib in plasma and processed samples was assessed at the low and high QC levels. Lenvatinib concentrations in samples after storage were compared to the theoretical concentrations and RE values were calculated. […] Freeze–thaw stability in plasma was evaluated up to three freeze–thaw cycles and frozen stability in plasma was evaluated at − 15 °C or below for 4 weeks (mice, rats, and dogs) or 6 weeks (monkeys). Stability in processed samples was assessed at 4 °C for 7 days. Stability of lenvatinib in the standard solutions was evaluated for the stock (100 μg/mL) and the working solution (5 ng/mL). The stability of the IS solution (0.5 μg/mL) was also assessed. […]

A fraction unbound at 0.3 μg/mL (plasma protein [1]; dog plasma, 0.3 μg/mL) of 0.084, a fraction unbound (plasma protein [1]; dog, plasma, dogs, 0.3–30 μg/mL, read-out: average fp (unbound fraction in plasma)) of 0.089 and a fraction unbound (plasma protein [2]; plasma, mice, 0.3–30 μg/mL, read-out: average fp (unbound fraction in plasma)) of 0.033 were found for COc1cc2nccc(Oc3ccc(NC(=O)NC4CC4)c(Cl)c3)c2cc1C(N)=O [lenvatinib, Lenvatinib] in this work. The fraction unbound at 0.3 μg/mL (plasma protein [2]; mice plasma, 0.3 μg/mL) was 0.031, the “Processed sample stability, mean percentage bias from the theoretical values” ([3]; HQC 80 μg/mL) was 0.3% and the “Processed sample stability, mean percentage bias from the theoretical values” ([3]; MQC 1 μg/mL) was 0.2%. For the same molecule, the “Freeze/thaw stability, mean percentage bias from the theoretical values” ([3]; rat plasma, 3 cycles, MQC 1 μg/mL) was 3.6% and the “Frozen stability, mean percentage bias from the theoretical values” ([3]; rat plasma, below − 15 °C, 4 weeks, LQC 0.01 μg/mL) was 1.0%.
